The record followed here is patent US4022884A, “Gardimycin and process for producing same” (Gruppo Lepetit S.p.A., priority 1974, dated 1977).

A word on the ED50: it is the midpoint of the dose-response relation.

In series [1] the test system is pathogenic bacteria of the genus Diplococcus and Streptococcus. Put plainly: In vivo activity against experimental infections in mice, general statement. The following applies: in words.
Series [2] is described as follows: Antibacterial in vitro activity, general statement. Type of series: cell-based. The following applies: in words. An excerpt: (§1) Metabolite A, metabolite B (hereafter referred to as gardimycin) as well as its salts with alkali and alkali earth metals and metabolite C show good antibacterial in vitro and in vivo activities.
Series [3] deals with Diplococcus pneumoniae UC 41. The experiment in a line: In vitro minimal inhibitory concentration (Table 1). Type of series: cell-based.
From the text: as §1

For series [4], the system named is Micrococcus flavus ATCC 10240. Described as above. Type of series: cell-based.
From the text: as §1

Series [5] relates to Staphylococcus aureus ATCC 538. The series is described as above. Type of series: cell-based.
From the text: as §1

Series [6] relates to Streptococcus faecalis ATCC 10541. The series is described as above. Type of series: cell-based.
From the text: as §1

Series [7] has as its system Neisseria gonorrheae ATCC 9826. The description is as above. The format is cell-based.
From the text: as §1

Series [8] concerns Streptococcus haemolyticus C 203. The description is as above. The format is cell-based.
From the text: as §1

The subject of series [9] is Streptococcus haemolyticus. Put plainly: Minimal inhibitory concentration, clinically isolated strains (Table 2). Type of series: cell-based. An excerpt: (§2) Another favorable characteristic of the antibiotic substance gardimycin is that it is active against clinically isolated Streptococcus strains.
Another series relates to Streptococcus viridans. Described as above. The format is cell-based.
From the text: as §2

Series [10] relates to Diplococcus pneumoniae UC 41. The experiment in a line: Experimental infection in mice. Type of series: in vivo.
Series [11] deals with clinically isolated Streptococcus strains. Put plainly: Activity against clinically isolated Streptococcus strains, general statement. The format is cell-based. The following applies: in words.
From the text: as §2

Another series can be described thus: Toxicity (LD50). Type of series: in vivo.
Series [12] concerns Streptococcus haemolyticus C 203. Put plainly: Experimental infection in mice. Type of series: in vivo.
Series [13] can be described thus: Antibacterial in vivo activity, general statement. The conditions noted are these: in words.
From the text: as §1

Series [14] has as its system Clostridium perfringens ISS 30543. The format is cell-based.

Regarding gardimycin, the “in vivo activity against experimental infections” value in series [1] was “very interesting in vivo activity”. Also, the “antibacterial in vitro activity” value in series [2] was “good”. Also, the Minimal inhibitory concentration came to 50 µg/mL in [3]; 1 µg/mL in [4]; 50 µg/mL in [5]; 50 µg/mL in [6]; 20 µg/mL in series [7]; 2 µg/mL in [8]. The Minimal inhibitory concentration in [9] (clinically isolated strain 2078) was 1 µg/mL; in [9] (clinically isolated strain 2087), 1 µg/mL; in the series with Streptococcus viridans (clinically isolated strain 2057) it was 5 µg/mL; in the series on Streptococcus viridans (clinically isolated strain 2085), 2 µg/mL; in series [14] it was 2 µg/mL. Besides, the ED50 in series [10] was 30 mg/kg; in [12], 0.75 mg/kg. The “activity against clinically isolated Streptococcus strains” value in series [11] is listed as “active”. For the same substance, the LD50 result is “higher than 1000 mg/Kg” in “Toxicity (LD50)” (i.p.) and “about 2000 mg/Kg” in “Toxicity (LD50)” (i.v.). In addition, the toxicity entry in “Toxicity (LD50)” (in words) is reported as “very low toxicity”. For the same substance, the “antibacterial in vivo activity” value in [13] is recorded as “good”.
